Where “and” joins values, the source holds several entries; their conditions need not be identical. Identical values can stand only once. Like-named read-outs stand apart in the source and are kept apart here.
Columns and labels:
[1] = tested on: ptau396; assay: p-Tau ser396 ELISA in TgA53T mice; format: in vivo, mouse; settings: 10 mg/Kg or 40 mg/Kg I.P. daily for 7 days
Method: Therefore, we also measured tau levels. There was no effect on murine tau levels (Figure 4D).
BK50118-C is one of novel small molecule inhibitors of USP13 synthesized in our laboratory. For BK50118-C treatment, approximately 15 months old (±1 month) male and female TgA53T mice were treated with intraperitoneal injection of vehicle (DMSO) or BK50118-C at the daily dosage of 10 mg/Kg or 40 mg/Kg for 7 days. Animals were age and sex-matched in their respective treatment cohorts. All animals were sacrificed after treatment. All experiments were conducted in full compliance with the recommendations of Georgetown University Animal Care and Use Committee. These experiments were conducted under animal protocol No. 2016-1194 titled, Misfolded Protein Clearance in Neurodegeneration, which was approved by the Georgetown University IACUC. Protocol Information: IACUC Protocol Number: 2016-1194. Protocol Approval Date: 14 September 2020 Expiration Date: 14 September 2023.
The ELISA for USP13 (MyBioSource, Cat # MBS9335287, San Diego, CA, USA), Human alpha-synuclein (Biolegend, Cat # 844101, San Diego, CA, USA) and specific p-Tau ser396 (Invitrogen, KHB7031, Waltham, MA, USA) were performed on cell or brain tissue extracts as described above according to manufacturers’ protocol.

[2] = Pharmacokinetics in wild type C57BL6 mice (brain and serum, UHPLC-MS/MS); format: in vivo; settings: C57BL/6, mouse, ip, 10 mg/kg I.P.; for AUC: over 12 h; for half-life: read-out: T1/2 (elimination) (converted)
Method: Wild type C57BL6 mice were injected with 10 mg/kg BK50118-C versus DMSO, and the brain and serum were isolated at 0, 1, 2, 4, 6, 8 and 12 h; extracted in water and examined by mass spectrometry. […] Elimination (T1/2) was 2.32 h for brain and 1.84 h in serum.
C57BL/6 mice received a single intraperitoneal dose (10 mg/kg) of BK50118-C. Brain and serum samples were collected at 1, 2, 3, 4, 8 and 12 h (n = 3 per time point). Animals injected with vehicle (DMSO) were used for background subtraction. Stock solution of the drug (1 mg/mL) and internal standards were prepared in methanol. Intermediate solutions used for the calibrators and control samples were serial-diluted in methanol/water (1:1). Preparation of the calibration curve standards and quality samples (QC) were performed by mixing the intermediate dilutions in blank samples (brain homogenates, serum). The internal standard working solution contained deuterium labeled BK50118-C-d7 at the concentration of 5 ng/mL diluted in acetonitrile (ACN)/ethyl acetate (4:1). Serum and brain samples were stored at −80 °C and then thawed to room temperature prior to preparation. The brains were homogenized in MilliQ water (1 mg brain: 10 µL water). Proteins were precipitated in both brain and serum samples by mixing 25 µL aqueous sample with 75 µL internal standard working solution. The mixture was centrifuged at 12,300× g for 5 min. Thereafter, 75 µL of each supernatant and 25 µL of MilliQ water were pipetted into a 96-well PCR plate (Fisher Scientific, Dawsonville, GA, USA).
The concentrations of BK50118-C in the brain tissue and serum samples were measured by ultrahigh performance liquid chromatography tandem mass spectrometry (UHPLC-MS/MS). Briefly, the UHPLC-MS/MS system included an Elute HTG binary gradient UHPLC pump, an Elute column oven and an EVOQ Elite triple quadrupole mass spectrometer (all from Bruker Daltonik GmbH, Bremen, Germany) equipped with an electrospray ionization (ESI) source operating in a positive mode. The samples were injected by use of a PAL auto sampler (CTC Analytics, Zwingen, Switzerland) equipped with a 10-µL sample loop; the samples were kept in a PAL stack cooler for 6 microtiter plates and operating at +6 °C. The system was controlled by a Compass 2.0/HyStar 4.0 software (Bruker); the compound screening and quantitation was performed by a TASQ 2.2 data acquisition and processing software (Bruker). The mass spectrometer was supplied by nitrogen and air generated by a Genius 3045 nitrogen/air generator (Peak Scientific Instruments, Inchinnan, Scotland, UK). The ESI parameters were as follows: probe gas flow 50, nebulizer gas flow 60, probe temperature +400 °C, cone gas flow 20, cone temperature +350 °C, CID gas Ar 1.5 mTorr. The mass spectra were scanned in the MRM mode to find the optimal collision energies for the test compounds and their respective precursor ions.
For chromatographic separation, an YMC-Ultra HT Hydrosphere C18 column (2.0 × 100 mm, 2 µm particle size) and an YMC-Hydrosphere 2.1 × 5 mm guard column (YMC Co. Ltd., Kyoto, Japan) were used. The mobile phase A was 10 mM ammonium formate, pH 4.3, in water; the mobile phase B was 10 mM ammonium formate, pH 4.3, in 10% water, 50% acetonitrile and 40% isopropyl alcohol. The mobile phase gradient was as follows (min—A/B%): 0 min—50/50, 0.5 min—50/50, 2.0 min—20/80, 3 min—20/80, 3.1 min—50/50, 4.5 min—50/50. The flow rate was 450 µL/min, and the column temperature was set at 50 °C. The sample injection volume was 10 µL.

Kp ([2]; brain and serum, read-out: Ratio of Serum/Brain): 0.28
Cmax ([2]; brain): 81.5 nM and 20.6 ng/mL
Tmax ([2]; brain): 1 h
AUC ([2]; brain): 0.164 ± 0.0395 µM·h
half-life ([2]; brain): 2.32 h
Cmax ([2]; serum): 89.7 ng/mL and 355 nM
Tmax ([2]; serum): 1 h
AUC ([2]; serum): 0.599 ± 0.143 µM·h
half-life ([2]; serum): 1.84 h
Compound: Fc1ccc2nccc(OCc3ccccc3)c2c1 [BK50118-C, 4-benzyloxy-6-fluoroquinoline]
effect on murine tau levels (ptau396 ELISA) [1]: no effect
